In PMC9963675 (Proceedings of the National Academy of Sciences of the …, 2023):

Experiments:
WT C57Bl6/N mice = experiment: open field locomotor activity time-course in mice; type: in vivo; details: for duration of locomotor / psychomotor effects: open field time-course, i.p.; for potency, cumulative distance traveled over 60 min post i.p. injection: compared with MPH, cocaine, R-αPVP, R-MDPV and R-pyrovalerone
DAT [1] = biological target: T1, DAT (Homo sapiens, UniProt Q01959); type: binding; details: DAT membranes
T1 sequence (Q01959 whole entry): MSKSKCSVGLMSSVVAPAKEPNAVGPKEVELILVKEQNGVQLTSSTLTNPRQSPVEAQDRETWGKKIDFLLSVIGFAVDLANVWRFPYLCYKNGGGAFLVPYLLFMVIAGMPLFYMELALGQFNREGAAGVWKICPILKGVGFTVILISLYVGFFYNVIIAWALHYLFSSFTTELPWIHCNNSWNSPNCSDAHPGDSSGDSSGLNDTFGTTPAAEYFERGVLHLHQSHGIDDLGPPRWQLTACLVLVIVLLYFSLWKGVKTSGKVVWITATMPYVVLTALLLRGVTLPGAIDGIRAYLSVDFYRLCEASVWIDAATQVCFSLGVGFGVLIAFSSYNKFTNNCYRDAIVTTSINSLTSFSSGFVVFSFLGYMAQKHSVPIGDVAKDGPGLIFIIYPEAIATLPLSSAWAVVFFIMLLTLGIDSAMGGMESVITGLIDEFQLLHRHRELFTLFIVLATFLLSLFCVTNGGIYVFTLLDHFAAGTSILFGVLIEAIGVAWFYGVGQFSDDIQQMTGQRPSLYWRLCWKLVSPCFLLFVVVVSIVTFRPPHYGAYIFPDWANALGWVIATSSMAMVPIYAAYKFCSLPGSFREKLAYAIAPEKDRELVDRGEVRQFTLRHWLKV

DAT [2] = biological target: T1, DAT; experiment: saturation of [3H]DA uptake in presence of inhibitor; type: cell-based; details: 1 min uptake; cocaine and R-αPVP 250, 500, 1,000 nM; S-αPVP 5, 10, 20 nM
DAT [3] = biological target: T1, DAT; experiment: electrophysiological examination of DAT-mediated currents; type: cell-based; details: HEK293 cells expressing DAT, whole-cell

| SMILES | duration of locomotor / psychomotor effects (WT C57Bl6/N mice) | further results |
| --- | --- | --- |
| CCC[C@H](C(=O)c1ccc(C)cc1)N1CCCC1 [R-pyrovalerone, pyrovalerone] | much shorter duration of locomotor effects | – |
| CCC[C@@H](C(=O)c1ccc(C)cc1)N1CCCC1 [S-pyrovalerone, pyrovalerone] | prolonged psychomotor effects | potency, cumulative distance traveled over 60 min post i.p. injection (WT C57Bl6/N mice): at least tenfold more potent |
| CCCC(C(=O)c1ccc2c(c1)OCO2)N1CCCC1 (stereo not drawn) [R-MDPV, 3,4-methylenedioxypyrovalerone] | much shorter duration of locomotor effects | – |
| CCCC(C(=O)c1ccc2c(c1)OCO2)N1CCCC1 (stereo not drawn) [S-MDPV, 3,4-methylenedioxypyrovalerone] | prolonged psychomotor effects | potency, cumulative distance traveled over 60 min post i.p. injection (WT C57Bl6/N mice): at least tenfold more potent |
| COC(=O)[C@H]1[C@@H](OC(=O)c2ccccc2)C[C@@H]2CC[C@H]1N2C [cocaine] | much shorter duration of locomotor effects | effect on dissociation rate of [3H]WIN35428 (DAT [1]): not affected; effect on Km of DA uptake (DAT [2]): increases Km in dose-dependent manner; effect on Vmax of DA uptake (DAT [2]): does not decrease Vmax |
| COC(=O)C(c1ccccc1)C1CCCCN1 (stereo not drawn) [MPH, methylphenidate] | much shorter duration of locomotor effects | – |
| NCCc1ccc(O)c(O)c1 [dopamine] | – | DAT-mediated inward currents (substrate activity) (DAT [3]): robust inward currents |
